The IC50 is the concentration that inhibits the measured activity by half. In general, EC50 refers to the concentration giving half of the maximal effect. A word on the AC50: it is the midpoint of the concentration-response curve, whichever way the signal moves. What is called CC50 is the concentration at which the toxic effect on the cells reaches its halfway point.

Molecules are shown by their SMILES. Calls of active or inactive are those of the source.

Assay [1] is described as follows: Luminescent dose response cell-based high throughput screening assay for inhibitors of the Janus kinase 2 mutant JAK2V617F. [Related pubchem assays: 1446 (Primary screen.), 1521 (Confirmation assay.), 1486 (Counter screen.)]. It is filed as functional. For orientation: A counterscreen serves to expose hits that act by an unwanted route or on another target.
Assay [2] is described as follows: HPDE-C7 pancreatic duct cell viability loss – fluorescence, HTS (AID 430). It is filed as functional, cell-based. The note with it: Homo sapiens.
Assay [3] in a line: viability loss of HPDE-C7K cells – cell-based, fluorescence, HTS, primary screen (AID 431). The format is functional. The settings on record: Homo sapiens.
Assay [4] deals with T1, Sphingosine 1-phosphate receptor 4 (Homo sapiens, UniProt O95977).
T1 sequence (O95977 whole entry): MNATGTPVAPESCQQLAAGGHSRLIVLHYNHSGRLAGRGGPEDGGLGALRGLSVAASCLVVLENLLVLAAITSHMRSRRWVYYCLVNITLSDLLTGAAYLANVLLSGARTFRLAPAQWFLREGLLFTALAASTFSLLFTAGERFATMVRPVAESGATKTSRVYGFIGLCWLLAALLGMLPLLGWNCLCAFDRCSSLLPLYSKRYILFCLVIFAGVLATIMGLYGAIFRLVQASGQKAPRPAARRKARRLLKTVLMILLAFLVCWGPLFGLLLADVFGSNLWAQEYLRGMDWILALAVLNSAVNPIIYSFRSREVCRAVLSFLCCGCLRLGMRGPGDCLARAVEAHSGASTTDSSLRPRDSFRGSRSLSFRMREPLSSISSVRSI
Description: Late stage fluorescence dose response cell-based screening assay for antagonists of the Sphingosine 1-Phosphate Receptor 4 (S1P4). [Related pubchem assays: 1524 (Confirmation screen (S1P4 antagonists).), 1510 (Primary screen (S1P4 antagonists).), 1853 (Summary AID (S1P4 antagonists).), 1692 (Dose response screen (S1P4 antagonists).)]. It is filed as functional.

In assay [5] the target is T1, Sphingosine 1-phosphate receptor 4. Kind of assay: Fluorescence dose response cell-based high throughput screening assay for antagonists of the Sphingosine 1-Phosphate Receptor 4 (S1P4). [Related pubchem assays: 1524 (Confirmation in triplicates.), 1510 (Primary screen.)]. The format is functional.
Assay [6] addresses Sphingosine 1-phosphate receptor 1 (Homo sapiens, UniProt P21453). The format is functional.
In assay [7] the target is T2, Heat shock factor protein 1 (Mus musculus, UniProt P38532).
T2 sequence (P38532 whole entry): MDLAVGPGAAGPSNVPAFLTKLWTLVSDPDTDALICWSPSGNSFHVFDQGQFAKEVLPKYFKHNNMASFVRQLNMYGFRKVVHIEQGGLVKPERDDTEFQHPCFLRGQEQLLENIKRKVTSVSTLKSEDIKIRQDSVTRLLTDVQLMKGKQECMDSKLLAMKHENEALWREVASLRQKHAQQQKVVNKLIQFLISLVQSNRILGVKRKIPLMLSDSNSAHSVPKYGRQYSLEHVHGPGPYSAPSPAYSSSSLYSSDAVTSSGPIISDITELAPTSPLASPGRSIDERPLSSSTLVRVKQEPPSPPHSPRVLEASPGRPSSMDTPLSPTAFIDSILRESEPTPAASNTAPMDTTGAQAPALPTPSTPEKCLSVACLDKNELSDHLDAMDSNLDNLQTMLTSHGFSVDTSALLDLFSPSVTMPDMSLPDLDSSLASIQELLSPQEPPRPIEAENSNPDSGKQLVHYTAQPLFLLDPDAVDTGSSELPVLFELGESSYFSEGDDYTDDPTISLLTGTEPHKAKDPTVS
Kind of assay: enhancement of HSF1-driven luciferase signal – cell-based, NIH3T3, luminescence, dose retest, confirmation (AID 435004).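 Note: stress induced by proteasome inhibitor MG132 added 30 min after compound; luciferase reporter driven by HSF1 response element in NIH3T3 cells; actives raise luminescence as potentiators of the MG132 stress response.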 It is filed as functional.

Assay [8] addresses T3, Replicative DNA helicase DnaB (Mycobacterium tuberculosis, UniProt P9WMR3).
T3 sequence (P9WMR3 whole entry): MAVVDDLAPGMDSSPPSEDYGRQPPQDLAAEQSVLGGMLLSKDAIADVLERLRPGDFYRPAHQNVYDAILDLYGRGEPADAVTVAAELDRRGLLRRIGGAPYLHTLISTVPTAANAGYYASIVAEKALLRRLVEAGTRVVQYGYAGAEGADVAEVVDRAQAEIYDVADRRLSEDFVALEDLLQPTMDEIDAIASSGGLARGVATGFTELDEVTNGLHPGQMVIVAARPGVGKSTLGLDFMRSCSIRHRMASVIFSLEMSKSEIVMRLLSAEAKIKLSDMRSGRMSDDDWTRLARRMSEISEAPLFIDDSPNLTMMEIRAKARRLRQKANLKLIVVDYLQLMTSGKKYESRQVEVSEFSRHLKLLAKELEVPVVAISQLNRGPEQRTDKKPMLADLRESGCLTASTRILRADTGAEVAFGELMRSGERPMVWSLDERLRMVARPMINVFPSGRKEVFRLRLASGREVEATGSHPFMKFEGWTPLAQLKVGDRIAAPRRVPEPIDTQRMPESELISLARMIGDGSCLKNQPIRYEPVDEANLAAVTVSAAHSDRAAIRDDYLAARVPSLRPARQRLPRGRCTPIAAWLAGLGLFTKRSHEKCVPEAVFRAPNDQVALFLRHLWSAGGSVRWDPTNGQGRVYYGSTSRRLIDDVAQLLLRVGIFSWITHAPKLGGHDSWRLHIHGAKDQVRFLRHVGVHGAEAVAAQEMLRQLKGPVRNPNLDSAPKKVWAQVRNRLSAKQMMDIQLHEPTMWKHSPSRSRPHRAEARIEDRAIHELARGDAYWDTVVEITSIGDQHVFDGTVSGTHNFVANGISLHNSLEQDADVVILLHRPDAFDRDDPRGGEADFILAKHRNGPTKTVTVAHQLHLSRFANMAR
Kind of assay: DnaB intein splicing inhibitors, dose response, biochemical, cell-free fluorescence (AID 449749). The format is functional.

Assay [9] addresses T4, Protein RecA (Mycobacterium tuberculosis, UniProt P9WHJ3).
T4 sequence (P9WHJ3 whole entry): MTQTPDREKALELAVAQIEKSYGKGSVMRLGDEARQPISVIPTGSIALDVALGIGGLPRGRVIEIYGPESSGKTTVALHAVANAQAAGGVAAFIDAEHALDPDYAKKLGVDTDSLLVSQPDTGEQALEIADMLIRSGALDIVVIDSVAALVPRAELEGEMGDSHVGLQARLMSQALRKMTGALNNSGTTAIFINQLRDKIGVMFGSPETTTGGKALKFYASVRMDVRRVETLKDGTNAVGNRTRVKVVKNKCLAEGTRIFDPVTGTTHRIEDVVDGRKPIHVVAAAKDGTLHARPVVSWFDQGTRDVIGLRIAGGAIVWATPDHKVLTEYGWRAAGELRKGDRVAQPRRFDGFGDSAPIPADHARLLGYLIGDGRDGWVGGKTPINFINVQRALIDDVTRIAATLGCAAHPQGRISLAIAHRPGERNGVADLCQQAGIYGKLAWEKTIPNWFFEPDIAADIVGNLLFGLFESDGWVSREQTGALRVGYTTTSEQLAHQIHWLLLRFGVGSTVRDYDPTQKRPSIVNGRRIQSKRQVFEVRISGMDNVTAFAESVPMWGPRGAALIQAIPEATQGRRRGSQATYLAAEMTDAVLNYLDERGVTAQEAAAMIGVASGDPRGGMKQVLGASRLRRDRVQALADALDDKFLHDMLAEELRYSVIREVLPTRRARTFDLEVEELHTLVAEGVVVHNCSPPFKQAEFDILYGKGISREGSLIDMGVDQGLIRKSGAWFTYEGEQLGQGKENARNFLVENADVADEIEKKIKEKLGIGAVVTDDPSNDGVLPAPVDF
Description: Fluorescence Cell-Free Homogeneous Dose Retest to Identify Inhibitors of RecA-Intein Splicing Activity. [Related pubchem assays (depositor defined):AID2097, AID2223, AID489010, AID492950]. The format is functional.

Assay [10] deals with Melanocortin receptor 4 (Homo sapiens, UniProt P32245). Description: inhibitors of MC4R cAMP signaling – cell-based, TR-FRET, biased antagonists, dose response (AID 602298).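 Note: antagonist potency against agonist-stimulated cAMP production.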 It is filed as functional.
A short description of assay [11]: cAMP pathway inhibition in counterscreen cell line – TR-FRET cAMP detection, counter-screen for MC4R biased antagonist project, dose response (AID 602305).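 Note: U2OS cells stimulated with forskolin near its EC80 as the cAMP inducer; potency is for inhibition of forskolin-stimulated cAMP signaling.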 The format is functional, cell-based.
Assay [12] addresses T5, Fatty acid synthase (Homo sapiens, UniProt P49327). Description: inhibition of human FAS-TE enzyme activity – biochemical, endpoint fluorescence intensity, uHTS hits, dose response (AID 624327).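 Note: fluorescence from hydrolysis of an O-methyl fluorescein acyl ester substrate by the enzyme.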 It is filed as functional.
The target of assay [13] is T5, Fatty acid synthase. Description: inhibition of human FAS-TE enzyme activity – biochemical, kinetic fluorescence intensity, dose response (AID 624326).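 Note: rate of fluorescence rise from hydrolysis of a fluorogenic O-methyl fluorescein ester substrate.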 It is filed as functional.
Assay [14] can be described thus: reduced cellular PGC1a acetyl-lysine signal – cell-based, cherry-picked samples, dose response (AID 720514).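 Note: potency may reflect raised or lowered acetylation signal.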 It is filed as functional.
Assay [15] can be described thus: Vero cell cytotoxicity, dose response, cytotoxicity control for M. tuberculosis growth inhibitor project, Vero cells, purified and synthesized compounds, set 5 (AID 504909). The format is functional. The note with it: Mycobacterium tuberculosis.
Assay [16] in a line: THP-1 cell cytotoxicity, cytotoxicity control, set 4 (AID 504911). It is filed as functional. The settings on record: Mycobacterium tuberculosis.

T5 sequence (P49327 whole entry): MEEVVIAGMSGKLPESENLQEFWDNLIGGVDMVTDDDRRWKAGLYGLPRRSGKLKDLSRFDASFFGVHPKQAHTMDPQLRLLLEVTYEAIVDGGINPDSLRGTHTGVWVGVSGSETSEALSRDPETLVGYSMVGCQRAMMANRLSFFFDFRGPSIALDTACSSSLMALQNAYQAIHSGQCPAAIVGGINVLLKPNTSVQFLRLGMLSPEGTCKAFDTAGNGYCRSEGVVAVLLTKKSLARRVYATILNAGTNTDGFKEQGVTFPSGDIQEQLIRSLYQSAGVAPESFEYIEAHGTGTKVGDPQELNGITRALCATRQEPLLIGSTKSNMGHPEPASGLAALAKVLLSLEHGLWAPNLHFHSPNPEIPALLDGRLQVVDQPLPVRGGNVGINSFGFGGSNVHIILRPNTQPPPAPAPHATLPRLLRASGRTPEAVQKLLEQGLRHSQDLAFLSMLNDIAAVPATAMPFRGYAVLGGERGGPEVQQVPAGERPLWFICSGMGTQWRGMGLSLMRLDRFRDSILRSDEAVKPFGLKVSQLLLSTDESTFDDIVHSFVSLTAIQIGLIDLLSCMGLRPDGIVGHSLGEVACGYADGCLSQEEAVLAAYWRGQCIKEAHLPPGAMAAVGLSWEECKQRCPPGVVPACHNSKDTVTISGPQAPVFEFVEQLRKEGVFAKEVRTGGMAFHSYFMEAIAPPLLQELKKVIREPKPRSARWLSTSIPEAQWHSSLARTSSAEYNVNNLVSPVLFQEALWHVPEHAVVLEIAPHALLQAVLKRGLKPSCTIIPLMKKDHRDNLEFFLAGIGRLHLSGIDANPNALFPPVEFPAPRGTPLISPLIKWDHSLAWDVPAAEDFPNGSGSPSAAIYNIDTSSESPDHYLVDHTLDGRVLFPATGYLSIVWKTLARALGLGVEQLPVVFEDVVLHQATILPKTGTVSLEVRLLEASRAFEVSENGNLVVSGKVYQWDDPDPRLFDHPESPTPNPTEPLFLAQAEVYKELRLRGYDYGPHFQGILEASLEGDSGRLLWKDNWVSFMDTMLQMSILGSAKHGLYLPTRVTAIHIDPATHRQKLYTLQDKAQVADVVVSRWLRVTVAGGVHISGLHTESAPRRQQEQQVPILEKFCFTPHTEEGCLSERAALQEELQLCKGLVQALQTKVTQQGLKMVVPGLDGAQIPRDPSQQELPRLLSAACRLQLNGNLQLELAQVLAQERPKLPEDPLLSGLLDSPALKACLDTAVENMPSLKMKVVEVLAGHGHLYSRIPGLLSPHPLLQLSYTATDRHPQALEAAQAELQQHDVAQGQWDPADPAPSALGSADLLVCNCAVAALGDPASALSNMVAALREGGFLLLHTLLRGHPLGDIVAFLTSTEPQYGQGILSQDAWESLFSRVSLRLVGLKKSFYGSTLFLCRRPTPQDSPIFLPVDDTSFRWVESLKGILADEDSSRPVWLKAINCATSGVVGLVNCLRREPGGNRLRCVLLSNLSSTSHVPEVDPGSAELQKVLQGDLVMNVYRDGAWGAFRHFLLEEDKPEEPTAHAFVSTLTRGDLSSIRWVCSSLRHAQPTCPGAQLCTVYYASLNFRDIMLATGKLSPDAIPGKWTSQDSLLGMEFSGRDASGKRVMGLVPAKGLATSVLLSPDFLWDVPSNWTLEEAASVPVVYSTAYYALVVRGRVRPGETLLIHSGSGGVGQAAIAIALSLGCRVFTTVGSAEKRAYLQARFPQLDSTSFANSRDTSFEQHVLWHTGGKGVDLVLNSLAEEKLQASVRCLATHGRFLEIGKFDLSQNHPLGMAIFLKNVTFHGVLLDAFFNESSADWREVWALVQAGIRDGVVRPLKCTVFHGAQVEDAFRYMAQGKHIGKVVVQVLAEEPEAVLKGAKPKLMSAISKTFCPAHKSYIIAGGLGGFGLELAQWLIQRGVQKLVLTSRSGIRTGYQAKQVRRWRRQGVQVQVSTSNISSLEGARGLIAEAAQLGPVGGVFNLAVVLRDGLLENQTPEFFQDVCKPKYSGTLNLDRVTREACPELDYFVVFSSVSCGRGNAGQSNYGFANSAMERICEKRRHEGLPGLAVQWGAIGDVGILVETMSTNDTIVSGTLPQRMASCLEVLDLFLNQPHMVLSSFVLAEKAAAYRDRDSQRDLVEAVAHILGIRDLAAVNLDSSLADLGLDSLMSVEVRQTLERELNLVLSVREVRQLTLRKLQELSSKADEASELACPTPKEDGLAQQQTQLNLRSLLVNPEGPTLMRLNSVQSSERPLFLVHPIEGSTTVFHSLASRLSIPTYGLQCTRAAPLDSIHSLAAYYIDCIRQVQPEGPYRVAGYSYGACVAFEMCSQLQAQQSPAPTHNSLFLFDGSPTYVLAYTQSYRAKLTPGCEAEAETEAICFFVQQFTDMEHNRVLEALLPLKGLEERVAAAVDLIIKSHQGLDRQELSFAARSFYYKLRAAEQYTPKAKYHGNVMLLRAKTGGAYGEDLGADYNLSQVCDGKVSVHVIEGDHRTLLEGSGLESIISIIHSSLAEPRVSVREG
Sequence of Sphingosine 1-phosphate receptor 1 (P21453 whole entry): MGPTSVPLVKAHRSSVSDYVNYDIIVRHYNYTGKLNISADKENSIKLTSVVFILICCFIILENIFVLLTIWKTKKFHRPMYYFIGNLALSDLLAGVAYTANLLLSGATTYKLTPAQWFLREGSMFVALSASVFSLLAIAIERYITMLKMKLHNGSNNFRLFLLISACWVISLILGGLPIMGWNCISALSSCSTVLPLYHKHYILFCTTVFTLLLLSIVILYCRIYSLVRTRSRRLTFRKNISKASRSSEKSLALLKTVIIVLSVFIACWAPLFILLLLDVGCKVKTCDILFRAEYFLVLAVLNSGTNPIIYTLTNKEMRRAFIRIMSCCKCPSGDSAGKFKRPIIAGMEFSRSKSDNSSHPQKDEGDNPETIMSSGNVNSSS
Sequence of Melanocortin receptor 4 (P32245 whole entry): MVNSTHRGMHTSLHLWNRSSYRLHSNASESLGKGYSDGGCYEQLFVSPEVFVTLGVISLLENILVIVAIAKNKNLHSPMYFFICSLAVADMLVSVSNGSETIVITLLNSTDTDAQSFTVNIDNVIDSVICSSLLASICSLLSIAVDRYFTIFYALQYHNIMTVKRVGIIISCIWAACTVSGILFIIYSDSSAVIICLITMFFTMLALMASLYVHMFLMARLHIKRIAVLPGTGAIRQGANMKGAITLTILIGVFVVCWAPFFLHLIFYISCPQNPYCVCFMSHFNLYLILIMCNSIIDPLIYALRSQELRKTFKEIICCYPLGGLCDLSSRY

As to `Cc1ccccc1CS(=O)(=O)c1nnc([C@H](CC(C)C)NC(=O)OC(C)(C)C)o1`, the IC50 in [1] was 0.632 µM (active); in assay [4], 2.89 µM (not active); in assay [5], 1.2 µM (active); in assay [6] it was 38.9 µM (not active); in assay [10], > 64.6 µM (inactive); in assay [11], > 64.6 µM (inactive). The IC50 in assay [12] was 12.3 µM (active); in assay [13], 7.36 µM (active). Besides, the EC50 in [2] was 8.56 µM (active); in assay [3], 11.9 µM (active); in assay [7], > 260 µM (inactive); in assay [9], 11.6 µM (active). Also, the AC50 in assay [8] is 93.7 µM (active); in [14] it was 16 µM (active).

As to `CO[C@H]1/C=C/O[C@@]2(C)Oc3c(C)c(O)c4c(O)c(c(C=NN5CCN(C)CC5)c(O)c4c3C2=O)NC(=O)/C(C)=C\C=C\[C@H](C)[C@H](O)[C@@H](C)[C@@H](O)[C@@H](C)[C@H](OC(C)=O)[C@@H]1C` [RIFAMPIN], the figures for the CC50 in assay [15] and in assay [16] were > 100 µM (active) and 79.7 µM (active), respectively.
